Laboratory results as given in US7968713B2, “Method of synthesizing quinoxaline derivative by microwave irradiation” (Nihon University, priority 2005, dated 2011).

Experiments:
HepG2 cells = test: Hypoxic selective cytotoxicity test with respect to HepG2 cells (colony forming ratio); format: cell-based, human; settings: 20 μM exposed for six hours, cultivated for seven days; for Activity (Surviving fraction) (%) hypoxia: hypoxic state (hypoxia); for Activity (Surviving fraction) (%) noroxia: usual oxygen state (noroxia)
Protocol: (Hypoxic Selective Cytotoxicity Test with Respect to HepG2 Cells)
A cytotoxicity reinforcing effect on a hypoxic condition was tested using HepG2 cells which were human liver cancer cells. In a usual oxygen state (noroxia) and a hypoxic state (hypoxia), 20 μM of each quinoxaline 1,4-dioxide derivative shown in Table 1 (Compounds 1 to 8 including R1 to R6 shown in Table 1 in the above general formula (3)) was exposed for six hours, and cultivated for seven days, and then colony forming ratios were compared. It is to be noted that in Table 1, “Ph-NO2” is a group in which a nitro group is introduced into a para position of a benzoyl group.

| Compound | melting point | Activity (Surviving fraction) (%) hypoxia (HepG2 cells) | Activity (Surviving fraction) (%) noroxia (HepG2 cells) |
| --- | --- | --- | --- |
| Cc1c(C(=O)c2ccc([N+](=O)[O-])cc2)[n+]([O-])c2cc(Cl)c(Cl)cc2[n+]1[O-] [Compound 7, 6,7-dichloro-3-methyl-2-(4′-nitrobenzoyl)-quinoxaline 1,4-dioxide] | 215 to 217 °C | 6% | 73% |
| Cc1c(C(=O)c2ccc([N+](=O)[O-])cc2)[n+]([O-])c2cc(F)c(F)cc2[n+]1[O-] [Compound 8, 6,7-difluoro-3-methyl-2-(41-nitrobenzoyl)-quinoxaline 1,4-dioxide] | 232 to 233 °C | 1% | 44% |

The next lines start with results.

| melting point | Compound | Activity (Surviving fraction) (%) hypoxia (HepG2 cells) | Activity (Surviving fraction) (%) noroxia (HepG2 cells) |
| --- | --- | --- | --- |
| 249 to 251 °C | O=C(c1ccccc1)c1c(-c2ccccc2)[n+]([O-])c2cc(F)c(F)cc2[n+]1[O-] [Example 2, 2-benzoyl-6,7-difluoro-3-phenylquinoxaline 1,4-dioxide] | – | – |
| 286 °C (dec.) | COc1cc2c(cc1OC)[n+]([O-])c(-c1ccccc1)c(C(=O)c1ccccc1)[n+]2[O-] [Example 3, 2-benzoyl-6,7-dimethoxy-3-phenylquinoxaline 1,4-dioxide] | – | – |
| 254 °C | COc1cc2c(cc1OC)[n+]([O-])c(C(C)=O)c(C)[n+]2[O-] [Example 5, 2-acetyl-6,7-dimethoxy-3-methylquinoxaline 1,4-dioxide] | – | – |
